Test results as given in the C3SDB collision cross section collection.
Structures can show the parent of a compound that is named as a salt.

Conditions: [M+H-H2O]+; instrument: TW; calibrated with polyalanine and drug standards

Structure (SMILES) | collision cross section (N2) [Å²]
Cc1cc2c(C(C)C)c(O)c(O)c(C=O)c2c(O)c1-c1c(C)cc2c(C(C)C)c(O)c(O)c(C=O)c2c1O [GOSSYPOL] | 228.1
CC1(C)CC[C@]2(C(=O)O)CC[C@]3(C)C(=CC[C@@H]4[C@@]5(C)CC[C@H](O)[C@@](C)(CO)[C@@H]5CC[C@]43C)[C@@H]2C1 [HEDERAGENIN] | 210.6
NS(=O)(=O)c1cc2c(cc1Cl)NCNS2(=O)=O [HYDROCHLOROTHIAZIDE] | 160.8

Same assay, conditions: [M+H]+; instrument: TW; calibrated with polyalanine and drug standards

Structure (SMILES) | collision cross section (N2) [Å²]
C[C@]12CC[C@H](O)C[C@H]1CC[C@@H]1[C@@H]2C[C@@H](O)[C@]2(C)[C@@H](C3=CC(=O)OC3)CC[C@]12O [DIGOXIGENIN] | 195.1
C[C@H]1O[C@@H](O[C@H]2[C@@H](O)C[C@H](O[C@H]3[C@@H](O)C[C@H](O[C@H]4CC[C@@]5(C)[C@H](CC[C@@H]6[C@@H]5C[C@@H](O)[C@]5(C)[C@@H](C7=CC(=O)OC7)CC[C@]65O)C4)O[C@@H]3C)O[C@@H]2C)C[C@H](O)[C@@H]1O [DIGOXIN] | 322.5
C[C@@H]1CC[C@@]2(OC1)O[C@H]1C[C@H]3[C@@H]4CC=C5C[C@@H](O)CC[C@]5(C)[C@H]4CC[C@]3(C)[C@H]1[C@@H]2C [DIOSGENIN] | 208.4
CC[C@H]1OC(=O)[C@H](C)[C@@H](O[C@H]2C[C@@](C)(OC)[C@@H](O)[C@H](C)O2)[C@H](C)[C@@H](O[C@@H]2O[C@H](C)C[C@H](N(C)C)[C@H]2O)[C@](C)(O)C[C@@H](C)[C@@H]2N[C@@H](COCCOC)O[C@H]([C@H]2C)[C@]1(C)O [DIRITHROMYCIN] | 284.2
O=c1[nH]c2ccccc2n1CCCN1CCC(n2c(=O)[nH]c3cc(Cl)ccc32)CC1 [DOMPERIDONE] | 201.8
O=C(CCCN1CC=C(n2c(=O)[nH]c3ccccc32)CC1)c1ccc(F)cc1 [DROPERIDOL] | 195
CCOC(=O)COc1ccc2c(=O)cc(-c3ccccc3)oc2c1 [EFLOXATE] | 177.4
C=CCOC(Cn1ccnc1)c1ccc(Cl)cc1Cl (stereo not given) [ENILCONAZOLE] | 165.2
Oc1ccc([C@H]2Oc3cc(O)cc(O)c3C[C@H]2O)cc1 [EPIAFZELECHIN (2R,3R)(-)] | 159.4
COc1ccc([C@H]2Oc3cc(OC)cc(OC)c3C[C@H]2O)cc1 [EPIAFZELECHIN TRIMETHYL ETHER] | 170
O=C(O[C@@H]1Cc2c(O)cc(O)cc2O[C@@H]1c1cc(O)c(O)c(O)c1)c1cc(O)c(O)c(O)c1 [EPIGALLOCATECHIN-3-MONOGALLATE] | 206.1
Oc1cc(O)c2c(c1)O[C@H](c1cc(O)c(O)c(O)c1)[C@H](O)C2 [EPIGALLOCATECHIN] | 165.5
CCc1cccc2c3c([nH]c12)C(CC)(CC(=O)O)OCC3 (stereo not given) [ETODOLAC] | 164.4
CC(=O)OC1CCC2(C)C3=C(CC[C@H]2C1(C)C)[C@@]1(C)CC[C@@H]([C@@H](C)CCC=C(C)C)[C@]1(C)CC3 (stereo not given in full) [EUPHOL ACETATE] | 218
CC(C)c1c(CN(C)C(C)Cc2ccccc2)n(C)n(-c2ccccc2)c1=O (stereo not given) [FAMPROFAZONE] | 190.9
COc1cc(/C=C/C(=O)O)ccc1O [FERULIC ACID] | 128.8
CC(C)(C)NC(=O)[C@H]1CC[C@H]2[C@@H]3CC[C@H]4NC(=O)C=C[C@]4(C)[C@H]3CC[C@]12C [FINASTERIDE] | 200
O=c1c(O)c(-c2ccc(O)c(O)c2)oc2cc(O)ccc12 [FISETIN] | 160.7
Nc1nc(F)nc2c1ncn2[C@@H]1O[C@H](COP(=O)(O)O)[C@@H](O)[C@@H]1O [FLUDARABINE PHOSPHATE] | 168.8
CC1(C)O[C@@H]2C[C@H]3[C@@H]4C[C@H](F)C5=CC(=O)C=C[C@]5(C)[C@H]4[C@@H](O)C[C@]3(C)[C@]2(C(=O)CO)O1 [FLUNISOLIDE] | 199.8
CC(C)C(=O)Nc1ccc([N+](=O)[O-])c(C(F)(F)F)c1 [FLUTAMIDE] | 160
O=C(O)c1ccccc1OP(=O)(O)O [FOSFOSAL] | 138.4
Cc1cccc(C)c1NC(=O)c1ccccc1C(=O)O [FTAXILIDE] | 159.2
Cc1cc(O)c(C=O)c2c1C(=O)Oc1c(COC(=O)/C=C/C(=O)O)c(O)c(C(=O)O)c(C)c1O2 [FUMARPROTOCETRARIC ACID] | 204.5
O=C1OC(CN2CCOCC2)CN1/N=C/c1ccc([N+](=O)[O-])o1 (stereo not given) [FURALTADONE] | 166.9
O=c1c(O)c(-c2ccccc2)oc2cc(O)cc(O)c12 [GALANGIN] | 154.9

Structure (SMILES) | collision cross section (N2) [Å²]
O=C(O)c1cc(O)c(O)c(O)c1 [GALLIC ACID] | 130.9
COC(=O)c1c(OC)cc2c(c1C)Oc1c(Cl)c(O)c(Cl)c(C)c1C(=O)O2 [GANGALEOIDIN] | 186.4
COc1c(N2CCNC(C)C2)c(F)cc2c(=O)c(C(=O)O)cn(C3CC3)c12 (stereo not given) [GATIFLOXACIN] | 189.5
Cc1ccc(S(=O)(=O)NC(=O)NN2CC3CCCC3C2)cc1 (stereo not given) [GLICLAZIDE] | 178
N[C@@H](C(=O)O)[C@@H](O)[C@H](O)[C@H](O)CO [GLUCOSAMINIC ACID] | 138.8
COc1ccc(Cl)cc1C(=O)NCCc1ccc(S(=O)(=O)NC(=O)NC2CCCCC2)cc1 [GLYBURIDE] | 205.9
C[C@H]1CC[C@@H](C(C)(C)O)CC2=C1CC[C@@H]2C [GUAIOL(-)] | 146.3
NC(N)=NC(=O)Cc1c(Cl)cccc1Cl [GUANFACINE] | 148.9
CCOC(=O)c1c(C)cc(O)c(C=O)c1O [HAEMATOMMIC ACID, ETHYL ESTER] | 144
O=C(CCCN1CCC(O)(c2ccc(Cl)cc2)CC1)c1ccc(F)cc1 [HALOPERIDOL] | 191.7
Cc1nccc2c1[nH]c1ccccc12 [HARMANE] | 136.6
CCCCC(CC)CN1CN(CC(CC)CCCC)CC(C)(N)C1 (stereo not given) [HEXETIDINE] | 194
COc1ccc2c(c1)O[C@H]1c3ccc(OC)cc3OC[C@@H]21 [HOMOPTEROCARPIN] | 162.7
CCN(CC)CCNc1ccc(CO)c2sc3ccccc3c(=O)c12 [HYCANTHONE] | 180.4
CC[C@H]1CN2CC[C@H]1C[C@@H]2[C@@H](O)c1ccnc2ccc(OC)cc12 [HYDROQUINIDINE] | 176.7
CC(=O)[C@@]1(O)CC[C@H]2[C@@H]3CCC4=CC(=O)CC[C@]4(C)[C@H]3CC[C@@]21C [HYDROXYPROGESTERONE] | 179.9
COc1ccc2c(C)cc(=O)oc2c1 [HYMECROMONE METHYL ETHER] | 134.4
COC1=C(OC)C(=O)C(CCCCCCCCCCO)=C(C)C1=O [IDEBENONE] | 178.6
O=C([O-])Cc1cnc[nH]1 [IMIDAZOL-4-YLACETIC ACID SODIUM SALT] | 120.7
CCC(Cc1c(I)cc(I)c(N)c1I)C(=O)O (stereo not given) [IOPANIC ACID] | 172.7
CC(C)Oc1ccc2c(=O)c(-c3ccccc3)coc2c1 [IPRIFLAVONE] | 164.3
CCCCC1=NC2(CCCC2)C(=O)N1Cc1ccc(-c2ccccc2-c2nn[nH]n2)cc1 [IRBESARTAN] | 201.2
COc1cc(-c2coc3cc(O[C@@H]4O[C@H](CO)[C@@H](O)[C@H](O)[C@H]4O)c(OC)c(O)c3c2=O)cc(O)c1OC [IRIDIN] | 227.2
COc1cc(-c2coc3cc(OC)c(OC)c(OC)c3c2=O)cc(OC)c1OC [IRIGENIN TRIMETHYL ETHER] | 195.4
COc1cc(-c2coc3cc(O)c(OC)c(O)c3c2=O)cc(O)c1OC [IRIGENIN] | 181.6
COc1cc2occc2c2oc(=O)ccc12 [ISOBERGAPTENE] | 139.8

Same assay, conditions: [M+Na]+; instrument: TW; calibrated with polyalanine and drug standards

Structure (SMILES) | collision cross section (N2) [Å²]
CC(=O)Oc1cc2c(c(C)c1OC(C)=O)CC=C1[C@@]2(C)CC[C@@]2(C)C3C[C@](C)(C(=O)O)CC[C@]3(C)CC[C@]12C (stereo not given in full) [DIHYDROCELASTRYL DIACETATE] | 219.7
COC(=O)[C@@H]1OC(=O)C2OC23[C@@]1(C)CCC1[C@@]2(C)CCC(=O)C(C)(C)C2C[C@@H](OC(C)=O)[C@]13C (stereo not given in full) [DIHYDROGEDUNIC ACID, METHYL ESTER] | 216.6
O=C1[C@H](CC[C@H](O)c2ccc(F)cc2)[C@@H](c2ccc(O)cc2)N1c1ccc(F)cc1 [EZETIMIBE] | 213.6
OC[C@@H](O)[C@@H](O[C@@H]1O[C@H](CO)[C@@H](O)[C@H](O)[C@H]1O)[C@H](O)[C@@H](O)CO [GLUCITOL-4-GUCOPYANOSIDE] | 174.3
O=Cc1ccccc1O[C@@H]1O[C@H](CO)[C@@H](O)[C@H](O)[C@H]1O [HELICIN] | 161.4
